Data from US5668152A, “Protein kinase C inhibitors” (priority 1995, dated 1997).
“Also recorded” adds a separate entry of the source. Where two headings read alike, the source gives them in different places.

Tests used:
PKC isozymes = settings: cited from earlier work
protein kinase C delta = protein kinase C delta (Homo sapiens, UniProt Q05655); test: biochemical; settings: PKC delta; 30 μM ATP, 30° C., 10 minutes; read-out: IC50 δ
Method: (§1) PKC enzymes=alpha, beta I, beta II, gamma, delta, epsilon, eta and zeta.
(§2) Assay components in a total volume of 250 μL are the following:
(§3) Vesicles consisting of 120 μg/mL phosphatidylserine (Avanti Polar Lipids) and sufficient diacylglycerol (Avanti Polar Lipids) to activate the enzyme to maximum activity in 20 mM HEPES buffer (Sigma, St. Louis, Mo.), pH 7.5, 940 μM calcium chloride (Sigma, St. Louis, Mo.) for assaying the alpha, beta I, beta II and gamma enzyme only, 1 mM EGTA for all the enzymes, 10 mM magnesium chloride (Sigma, St. Louis, Mo.) and 30 μM (gamma-32P) ATP (DuPont). For all the enzymes either histone type HL (Worthington) or myelin basic protein is used as substrate. The assay is started by addition of protein kinase C enzyme incubated at 30° C. for 10 minutes and stopped by adding 0.5 mL of cold trichloroacetic acid (Amresco) followed by 100 μL of 1 mg/mL bovine serum albumin (Sigma, St. Louis, Mo.). The precipitate is collected by vacuum filtration on glass fiber filters employing a TOMTEC™ filtration system and quantified by counting in a beta scintillation counter.

protein kinase C zeta = target: T1, protein kinase C zeta (Homo sapiens, UniProt Q05513); test: PKC Enzyme assay, zeta isozyme; type: biochemical; settings: PKC zeta; 30 μM ATP, 30° C., 10 minutes; read-out: IC50 ζ
T1 sequence (Q05513 1-592): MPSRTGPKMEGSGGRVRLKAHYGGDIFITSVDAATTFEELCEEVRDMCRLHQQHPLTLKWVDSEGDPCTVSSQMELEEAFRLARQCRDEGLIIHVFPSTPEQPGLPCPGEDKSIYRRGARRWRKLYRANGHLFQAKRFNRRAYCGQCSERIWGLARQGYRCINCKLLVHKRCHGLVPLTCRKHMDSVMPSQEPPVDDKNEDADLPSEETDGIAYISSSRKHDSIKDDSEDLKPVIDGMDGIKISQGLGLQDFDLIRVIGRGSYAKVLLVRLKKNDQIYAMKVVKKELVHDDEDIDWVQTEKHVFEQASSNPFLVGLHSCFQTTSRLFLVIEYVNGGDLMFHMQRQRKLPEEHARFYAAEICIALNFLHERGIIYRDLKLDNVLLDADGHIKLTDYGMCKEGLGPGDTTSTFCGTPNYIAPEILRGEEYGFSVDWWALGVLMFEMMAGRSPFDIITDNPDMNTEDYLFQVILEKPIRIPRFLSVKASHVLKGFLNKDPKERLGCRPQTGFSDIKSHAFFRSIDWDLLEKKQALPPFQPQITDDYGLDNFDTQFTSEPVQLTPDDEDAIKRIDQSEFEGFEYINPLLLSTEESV
Method: as §1, §2, §3

protein kinase C epsilon = target: T2, protein kinase C epsilon (Homo sapiens, UniProt Q02156); test: PKC Enzyme assay, epsilon isozyme; type: biochemical; settings: PKC epsilon; 30 μM ATP, 30° C., 10 minutes; read-out: IC50 ε
T2 sequence (Q02156 1-737): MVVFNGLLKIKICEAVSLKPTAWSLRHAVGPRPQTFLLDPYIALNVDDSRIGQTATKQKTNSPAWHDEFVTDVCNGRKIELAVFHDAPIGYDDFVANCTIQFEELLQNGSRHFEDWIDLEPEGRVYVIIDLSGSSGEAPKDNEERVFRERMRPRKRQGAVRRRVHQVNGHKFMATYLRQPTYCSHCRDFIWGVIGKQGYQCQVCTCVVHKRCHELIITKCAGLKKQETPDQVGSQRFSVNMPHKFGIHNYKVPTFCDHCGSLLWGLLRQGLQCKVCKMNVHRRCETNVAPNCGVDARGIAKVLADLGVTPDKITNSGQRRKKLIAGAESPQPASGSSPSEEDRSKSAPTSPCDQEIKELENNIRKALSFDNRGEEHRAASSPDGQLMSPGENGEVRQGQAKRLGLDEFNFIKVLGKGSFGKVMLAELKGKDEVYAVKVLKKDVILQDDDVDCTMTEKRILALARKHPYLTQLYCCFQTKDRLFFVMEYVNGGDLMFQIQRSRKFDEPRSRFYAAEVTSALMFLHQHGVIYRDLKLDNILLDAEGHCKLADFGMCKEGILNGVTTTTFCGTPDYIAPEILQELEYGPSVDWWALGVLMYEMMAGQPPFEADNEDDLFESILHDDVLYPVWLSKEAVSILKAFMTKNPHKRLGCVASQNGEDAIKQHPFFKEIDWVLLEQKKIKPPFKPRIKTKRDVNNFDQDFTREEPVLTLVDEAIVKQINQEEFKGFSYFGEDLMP
Method: as §1, §2, §3

protein kinase C eta = protein kinase C eta (Homo sapiens, UniProt P24723); test: PKC Enzyme assay, eta isozyme; type: biochemical; settings: PKC eta; 30 μM ATP, 30° C., 10 minutes; read-out: IC50 η
Method: as §1, §2, §3

protein kinase C alpha = protein kinase C alpha (Homo sapiens, UniProt P17252); test: PKC Enzyme assay, alpha isozyme; type: biochemical; settings: PKC alpha; 30 μM ATP, 30° C., 10 minutes; read-out: IC50 α
Method: as §1, §2, §3

protein kinase C beta-1 = protein kinase C beta-1 (Homo sapiens, UniProt P05771); test: PKC Enzyme assay, beta I isozyme; type: biochemical; settings: PKC beta-1; 30 μM ATP, 30° C., 10 minutes; read-out: IC50 β1
Method: as §1, §2, §3

protein kinase C gamma = protein kinase C gamma (Homo sapiens, UniProt P05129); test: PKC Enzyme assay, gamma isozyme; type: biochemical; settings: PKC gamma; 30 μM ATP, 30° C., 10 minutes; read-out: IC50 γ
Method: as §1, §2, §3

protein kinase C beta-2 = protein kinase C beta-2 (Homo sapiens, UniProt P05771); test: PKC Enzyme assay, beta II isozyme; type: biochemical; settings: PKC beta-2; 30 μM ATP, 30° C., 10 minutes; read-out: IC50 β2
Method: as §1, §2, §3

Chain of protein kinase C delta (Q05655 whole entry): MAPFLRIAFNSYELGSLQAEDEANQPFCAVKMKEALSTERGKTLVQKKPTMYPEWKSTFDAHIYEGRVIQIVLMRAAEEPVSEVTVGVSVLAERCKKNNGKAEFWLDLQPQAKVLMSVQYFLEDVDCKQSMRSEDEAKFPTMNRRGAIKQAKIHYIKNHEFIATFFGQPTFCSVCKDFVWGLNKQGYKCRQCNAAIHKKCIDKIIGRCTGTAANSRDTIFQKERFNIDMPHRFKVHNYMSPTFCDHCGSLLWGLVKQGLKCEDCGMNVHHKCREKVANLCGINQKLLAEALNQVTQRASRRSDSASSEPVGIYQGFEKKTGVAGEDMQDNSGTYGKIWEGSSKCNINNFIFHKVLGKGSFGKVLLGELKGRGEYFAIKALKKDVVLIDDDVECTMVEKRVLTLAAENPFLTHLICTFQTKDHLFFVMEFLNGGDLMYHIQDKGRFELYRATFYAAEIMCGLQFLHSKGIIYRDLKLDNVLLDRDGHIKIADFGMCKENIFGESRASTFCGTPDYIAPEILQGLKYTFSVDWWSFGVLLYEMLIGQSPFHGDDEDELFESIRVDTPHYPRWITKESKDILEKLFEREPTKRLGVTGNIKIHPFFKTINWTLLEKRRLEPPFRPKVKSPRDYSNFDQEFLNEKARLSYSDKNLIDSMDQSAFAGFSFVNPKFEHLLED
Chain of protein kinase C beta-2 (P05771 1-673 isoform P05771-2): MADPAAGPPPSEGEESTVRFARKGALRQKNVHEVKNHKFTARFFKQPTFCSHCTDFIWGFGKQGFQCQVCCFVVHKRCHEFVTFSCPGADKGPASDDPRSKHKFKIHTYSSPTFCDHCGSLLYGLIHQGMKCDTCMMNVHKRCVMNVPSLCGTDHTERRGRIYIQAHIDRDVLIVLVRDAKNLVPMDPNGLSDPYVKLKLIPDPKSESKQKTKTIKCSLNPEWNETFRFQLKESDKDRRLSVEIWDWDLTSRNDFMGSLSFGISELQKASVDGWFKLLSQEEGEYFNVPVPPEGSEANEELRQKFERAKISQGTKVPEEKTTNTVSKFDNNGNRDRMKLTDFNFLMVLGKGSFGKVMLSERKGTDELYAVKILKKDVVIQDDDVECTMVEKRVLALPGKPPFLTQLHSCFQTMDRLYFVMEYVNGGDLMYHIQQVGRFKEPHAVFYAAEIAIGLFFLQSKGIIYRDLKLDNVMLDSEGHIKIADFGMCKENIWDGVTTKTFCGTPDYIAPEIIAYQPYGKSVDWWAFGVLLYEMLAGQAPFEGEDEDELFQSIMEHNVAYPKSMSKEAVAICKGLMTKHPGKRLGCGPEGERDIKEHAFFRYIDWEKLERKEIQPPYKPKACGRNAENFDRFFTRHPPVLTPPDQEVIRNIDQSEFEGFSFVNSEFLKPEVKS
Chain of protein kinase C eta (P24723 whole entry): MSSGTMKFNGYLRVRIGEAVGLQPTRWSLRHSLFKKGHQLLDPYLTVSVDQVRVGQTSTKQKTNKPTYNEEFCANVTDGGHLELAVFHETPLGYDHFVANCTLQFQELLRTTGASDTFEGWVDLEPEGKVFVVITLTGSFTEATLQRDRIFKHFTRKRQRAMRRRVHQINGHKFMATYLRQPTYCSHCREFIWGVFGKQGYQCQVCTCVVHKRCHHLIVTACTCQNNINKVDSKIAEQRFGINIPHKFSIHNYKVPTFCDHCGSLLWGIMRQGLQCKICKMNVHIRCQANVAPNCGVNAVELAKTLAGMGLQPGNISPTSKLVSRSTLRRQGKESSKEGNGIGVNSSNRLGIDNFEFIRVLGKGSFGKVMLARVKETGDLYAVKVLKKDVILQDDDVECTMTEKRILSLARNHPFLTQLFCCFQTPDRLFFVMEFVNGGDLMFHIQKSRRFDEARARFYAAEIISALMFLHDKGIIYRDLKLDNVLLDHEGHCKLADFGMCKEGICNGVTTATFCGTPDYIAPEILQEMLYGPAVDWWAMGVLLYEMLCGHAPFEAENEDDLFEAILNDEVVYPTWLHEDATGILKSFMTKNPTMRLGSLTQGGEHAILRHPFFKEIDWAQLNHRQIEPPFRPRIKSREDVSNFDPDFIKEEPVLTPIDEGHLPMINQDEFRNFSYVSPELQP
Chain of protein kinase C beta-1 (P05771 whole entry): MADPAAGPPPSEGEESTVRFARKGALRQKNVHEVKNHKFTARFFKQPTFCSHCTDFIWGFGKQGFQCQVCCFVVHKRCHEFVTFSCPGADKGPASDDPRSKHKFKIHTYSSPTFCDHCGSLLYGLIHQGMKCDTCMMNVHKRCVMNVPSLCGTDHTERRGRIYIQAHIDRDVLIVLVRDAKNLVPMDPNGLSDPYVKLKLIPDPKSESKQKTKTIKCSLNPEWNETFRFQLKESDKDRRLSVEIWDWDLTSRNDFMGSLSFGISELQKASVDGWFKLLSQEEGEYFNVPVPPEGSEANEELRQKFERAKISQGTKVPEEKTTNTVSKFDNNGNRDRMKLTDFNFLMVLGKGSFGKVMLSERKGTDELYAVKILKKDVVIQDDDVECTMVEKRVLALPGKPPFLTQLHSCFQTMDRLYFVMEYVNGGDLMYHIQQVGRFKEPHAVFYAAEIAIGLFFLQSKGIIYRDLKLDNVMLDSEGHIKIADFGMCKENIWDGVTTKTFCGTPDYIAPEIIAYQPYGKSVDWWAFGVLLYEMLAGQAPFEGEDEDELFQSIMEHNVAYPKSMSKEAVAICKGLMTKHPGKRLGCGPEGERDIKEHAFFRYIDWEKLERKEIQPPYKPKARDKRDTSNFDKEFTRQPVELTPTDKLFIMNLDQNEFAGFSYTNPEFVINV

Structure (SMILES) | isozyme selectivity (PKC isozymes; Martiny-Baron et al. (1993)) | isozyme selectivity (PKC isozymes; Toullec et al. (1991)) | IC50 (protein kinase C delta) | IC50 (protein kinase C zeta) | IC50 (protein kinase C epsilon) | IC50 (protein kinase C eta) | IC50 (protein kinase C alpha) | IC50 (protein kinase C beta-1) | IC50 (protein kinase C gamma) | IC50 (protein kinase C beta-2)
CN(C)CCCn1cc(C2=C(c3c[nH]c4ccccc34)C(=O)NC2=O)c2ccccc21 [3-[1-(3-dimethylaminopropyl)-indol-3-yl]-4-(1H-indol-3-yl)-1H-pyrrole-2,5-dione] | slight selectivity for isozymes, alpha and beta versus delta, epsilon, and zeta; also recorded: no differences in the selectivity between alpha and beta-1 isozymes | slight selectivity for the calcium dependent isozymes; also recorded: no isozyme selectivity between alpha, beta-1, beta-2, and gamma |  |  |  |  |  |  |  | 
Cn1cc(C2=C(c3cn(CCCCOC4CC(O)C(CN)O4)c4ccccc34)C(=O)NC2=O)c2ccccc21 (centres unmarked) [Example 54] |  |  | 7.9 µM | 37 µM | 4.3 µM | 2.5 µM | 6.7 µM | 1.1 µM | 15 µM | 0.34 µM
CC(=O)NCC1OC(OCCCCn2cc(C3=C(c4cn(C)c5ccccc45)C(=O)NC3=O)c3ccccc32)CC1OC(C)=O (centres unmarked) [Example 55] |  |  | 0.95 µM | 45 µM | 6.6 µM | 1.2 µM | 2.3 µM | 0.26 µM | 4.2 µM | 0.05 µM
Cn1cc(C2=C(c3cn(CCCCOC4C[C@H](O)[C@@H](CO)O4)c4ccccc34)C(=O)NC2=O)c2ccccc21 (some centres unmarked) [Example 56] |  |  | 0.93 µM | 49 µM | 2.4 µM | 1.3 µM | 1.6 µM | 0.069 µM | 3.2 µM | 0.039 µM
Cn1cc(C2=C(c3cn(CCO[C@@H]4C[C@H](O)[C@@H](CN=[N+]=[N-])O4)c4ccccc34)C(=O)NC2=O)c2ccccc21 [Example 58] |  |  | 4.5 µM | 46 µM | 12 µM | 2.5 µM | 4.9 µM | 0.24 µM | 38 µM | 0.27 µM
Cn1cc(C2=C(c3cn(CCOC4O[C@H](CO)[C@@H](O)[C@@H](N=[N+]=[N-])[C@H]4O)c4ccccc34)C(=O)NC2=O)c2ccccc21 (some centres unmarked) [Example 59] |  |  | 2.8 µM | 48 µM | 31 µM | 1.6 µM | 4.5 µM | 0.2 µM | 9 µM | 0.11 µM
Cn1cc(C2=C(c3cn(CCOC4O[C@H](CO)[C@@H](O)[C@@H](O)[C@H]4N=[N+]=[N-])c4ccccc34)C(=O)NC2=O)c2ccccc21 (some centres unmarked) [Example 60] |  |  | 7.4 µM | 75 µM | 91 µM | 3.6 µM | 4.5 µM | 0.18 µM | 24 µM | 0.042 µM
Cn1cc(C2=C(c3cn(CCOC4C[C@H](N=[N+]=[N-])[C@@H](CO)O4)c4ccccc34)C(=O)NC2=O)c2ccccc21 (some centres unmarked) [Example 61] |  |  | 3.2 µM | 20 µM | 20 µM | 0.75 µM | 3.6 µM | 0.16 µM | 4.8 µM | 0.041 µM
Cn1cc(C2=C(c3cn(CCOC4C[C@@H](N=[N+]=[N-])[C@@H](CO)O4)c4ccccc34)C(=O)NC2=O)c2ccccc21 (some centres unmarked) [Example 62] |  |  | 3.9 µM | 41 µM | 42 µM | 2.6 µM | 4.4 µM | 0.2 µM | 5.2 µM | 0.1 µM
Cn1cc(C2=C(c3cn(CCOC4C[C@H](N)[C@@H](CO)O4)c4ccccc34)C(=O)NC2=O)c2ccccc21 (some centres unmarked) [Example 63] |  |  | 1.6 µM | 50 µM | 3.6 µM | 0.14 µM | 1.7 µM | 0.13 µM | 4 µM | 0.049 µM
Cn1cc(C2=C(c3cn(C4CCOC4)c4ccccc34)C(=O)NC2=O)c2ccccc21 (centres unmarked) [Example 64] |  |  | 0.16 µM | 50 µM | 0.8 µM | 0.04 µM | 0.16 µM | 0.005 µM | 0.28 µM | 0.005 µM
Cn1cc(C2=C(c3cn(CCOC4O[C@H](CO)[C@@H](O)[C@@H](N)[C@H]4O)c4ccccc34)C(=O)NC2=O)c2ccccc21 (some centres unmarked) [Example 67] |  |  | 4.1 µM | 47 µM | 38 µM | 2.6 µM | 6.6 µM | 0.3 µM | 8.2 µM | 0.2 µM
CN1CCC(Cn2cc(C3=C(c4cn(C)c5ccccc45)C(=O)NC3=O)c3ccccc32)CC1 [Example 68, 3-(1-Methyl-indol-3-yl)-4-[1-(1-methyl-piperidin-4-ylmethylene)-indol-3-yl]-1H-pyrrole-2,5-dione] |  |  | 1.9 µM | 9.8 µM | 4.6 µM | 0.11 µM | 1.4 µM | 0.047 µM | 2.4 µM | 0.033 µM
CCOC(=O)N1CCC(Cn2cc(C3=C(c4cn(C)c5ccccc45)C(=O)NC3=O)c3ccccc32)CC1 [Example 69, 3-[1-(1N-ethycarbomate-piperidin-4-yl-methylene)-indol-3-yl]-4-[1-methyindol-3-yl]-1H-pyrrole-2,5-dione] |  |  | 7.3 µM | > 100 µM | > 100 µM | 3.1 µM | 6.5 µM | 0.39 µM | 8.2 µM | 0.21 µM
CC(=O)NCC1OC(OCCCCn2cc(C3=C(c4cn(C)c5ccccc45)C(=O)N(C(C)=O)C3=O)c3ccccc32)CC1OC(C)=O (centres unmarked) [Example 70] |  |  | 3.2 µM | 37 µM | 70 µM | 1.4 µM | 3.3 µM | 0.32 µM | 3 µM | 0.19 µM
Cn1cc(C2=C(c3cn(C4CN(C(c5ccccc5)c5ccccc5)C4)c4ccccc34)C(=O)NC2=O)c2ccccc21 [Example 72, 3-[1-(Benzhydryl-azetidin-3-yl)-indol-3-yl)-4-(1-methyl-indol-3-yl)-1H-pyrrole-2,5-dione] |  |  | > 100 µM | 49 µM | > 100 µM | 0.042 µM | > 100 µM | 9.1 µM | 90 µM | 2.7 µM
